{"source": "patent US6521265B1", "about": "“Method for applying a blood clotting agent” (Biolife, L.L.C., priority 2000, dated 2003)", "test_system": "blood flowing from an open wound", "test": "Potassium ferrate used on blood flowing from an open wound", "details": "in vivo", "excerpt": "The apparent chemical ferrate reaction with water found in blood is as follows:\nAs provided by the above compounds, a method of arresting blood and body fluid flow from an open skin wound is provided. An effective amount of any of the above salt ferrates, and preferably potassium ferrate in powder form, is applied directly onto the wound to interact with flowing blood or body fluid to accelerate its clotting."}
{"substance": "potassium ferrate", "values": [{"measurement": "clotting of blood flowing from an open wound", "result": "effectively accomplishes the accelerated clotting of blood"}]}
